Measurements as given in PubChem BioAssay AID330 (DTP/NCI, 2004).
“And” between values parts separate entries of the source, which are not always exact repeats. Equal values may be shown once. Inconclusive results and toxic doses are left out. How the source made its calls: active means survival T/C of 150% or more; inactive means T/C below 125% in these data.

System: P388 leukemia ip, CD2F1 mice, survival T/C
Test: NCI In Vivo Anticancer Drug Screen. Data for tumor model P388 Leukemia (intraperitoneal) in CD2F1 (CDF1) mice
Conditions: endpoint: median survival time, higher = longer survival
Outline: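 Mice carrying the transplanted tumor received test compound or vehicle. Survival was recorded in each group, and the value is the treated-group measurement divided by that of the vehicle-treated control group.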

[1] = dose: 50.0 mg/kg/injection, schedule: Q01DX005 (ip), vehicle: saline with Tween-80
[2] = dose: 100.0 mg/kg/injection, schedule: Q01DX005 (ip), vehicle: saline with Tween-80
[3] = dose: 200.0 mg/kg/injection, schedule: Q01DX005 (ip), vehicle: saline with Tween-80
[4] = dose: 50.0 mg/kg/injection, schedule: Q01DX005 (ip), vehicle: Klucel (hydroxypropylcellulose) (HPC)
[5] = dose: 100.0 mg/kg/injection, schedule: Q01DX005 (ip), vehicle: Klucel (hydroxypropylcellulose) (HPC)
[6] = dose: 200.0 mg/kg/injection, schedule: Q01DX001 (ip), vehicle: saline with Tween-80
[7] = dose: 400.0 mg/kg/injection, schedule: Q01DX001 (ip), vehicle: saline with Tween-80

Measured: T/C

CN(C)CCCNc1c2ccccc2nc2cc([N+](=O)[O-])ccc12
inactive: dose: 0.1 mg/kg/injection, schedule: Q01DX009 (ip), vehicle: water 103 % of control | dose: 0.2 mg/kg/injection, schedule: Q01DX009 (ip), vehicle: water 104 % of control | dose: 0.39 mg/kg/injection, schedule: Q01DX009 (ip), vehicle: water 100 % of control | dose: 0.78 mg/kg/injection, schedule: Q01DX009 (ip), vehicle: water 100 % of control and 117 % of control | dose: 1.56 mg/kg/injection, schedule: Q01DX009 (ip), vehicle: water 102 % of control and 108 % of control | dose: 3.13 mg/kg/injection, schedule: Q01DX009 (ip), vehicle: water 123 % of control | dose: 6.25 mg/kg/injection, schedule: Q01DX009 (ip), vehicle: water 95 % of control

CNC(=S)SSC(=S)NCCNC(=S)SSC(=S)NC
inactive: [1] 99 % of control | [2] 106 % of control | [3] 101 % of control

CC(=O)OC1C(O)C(C)OC(OC2C(OC(=O)C3CCC4C(C3)OC3(CC(OC(=O)/C=C/c5ccccc5)C(C)CO3)C43CO3)OC(CO)C(O)C2OC(C)=O)C1O (stereo not given)
inactive: dose: 1.5 mg/kg/injection, schedule: Q01DX009 (ip), vehicle: saline + alcohol 106 % of control | dose: 3.0 mg/kg/injection, schedule: Q01DX009 (ip), vehicle: saline + alcohol 106 % of control and 116 % of control

Cc1cc2ccccc2nc1-c1ccncc1
inactive: dose: 25.0 mg/kg/injection, schedule: Q04DX002 (ip), vehicle: Klucel (hydroxypropylcellulose) (HPC) 96 % of control | dose: 50.0 mg/kg/injection, schedule: Q04DX002 (ip), vehicle: Klucel (hydroxypropylcellulose) (HPC) 96 % of control | dose: 100.0 mg/kg/injection, schedule: Q04DX002 (ip), vehicle: Klucel (hydroxypropylcellulose) (HPC) 101 % of control | dose: 200.0 mg/kg/injection, schedule: Q04DX002 (ip), vehicle: Klucel (hydroxypropylcellulose) (HPC) 103 % of control

Nc1nc(-c2ccccc2)nc(-c2ccccc2)n1
inactive: dose: 2.5 mg/kg/injection, schedule: Q01DX009 (ip), vehicle: saline 104 % of control | dose: 3.12 mg/kg/injection, schedule: Q01DX009 (ip), vehicle: saline 95 % of control | dose: 3.12 mg/kg/injection, schedule: Q01DX009 (ip), vehicle: suspension in saline 100 % of control and 97 % of control | dose: 5.0 mg/kg/injection, schedule: Q01DX009 (ip), vehicle: saline 104 % of control | dose: 6.25 mg/kg/injection, schedule: Q01DX009 (ip), vehicle: saline 92 % of control | dose: 10.0 mg/kg/injection, schedule: Q01DX009 (ip), vehicle: saline 100 % of control | dose: 12.5 mg/kg/injection, schedule: Q01DX009 (ip), vehicle: saline 89 % of control | dose: 12.5 mg/kg/injection, schedule: Q01DX009 (ip), vehicle: suspension in saline 93 % of control and 98 % of control | dose: 20.0 mg/kg/injection, schedule: Q01DX009 (ip), vehicle: saline 100 % of control | dose: 25.0 mg/kg/injection, schedule: Q01DX009 (ip), vehicle: suspension in saline 90 % of control and 98 % of control

CCN(CC)CCSc1ccccc1
inactive: [4] 100 % of control | [5] 102 % of control

CCC1SC2=NCCN2C1(O)c1ccc(Cl)cc1 (stereo not given)
inactive: dose: 60.0 mg/kg/injection, schedule: Q01DX005 (ip), vehicle: Klucel (hydroxypropylcellulose) (HPC) 96 % of control | dose: 120.0 mg/kg/injection, schedule: Q01DX005 (ip), vehicle: Klucel (hydroxypropylcellulose) (HPC) 95 % of control | dose: 240.0 mg/kg/injection, schedule: Q01DX005 (ip), vehicle: Klucel (hydroxypropylcellulose) (HPC) 89 % of control

COC(=O)c1c(C(=O)OC)c2ccc3ccccc3n2c1-c1ccccc1
inactive: dose: 12.5 mg/kg/injection, schedule: Q01DX001 (ip), vehicle: saline with Tween-80 115 % of control | dose: 25.0 mg/kg/injection, schedule: Q01DX001 (ip), vehicle: saline with Tween-80 94 % of control | dose: 50.0 mg/kg/injection, schedule: Q01DX001 (ip), vehicle: saline with Tween-80 94 % of control | [6] 93 % of control | [7] 100 % of control

CSc1nc(SC)c2c(C)cn(COCCOC(=O)c3ccccc3)c2n1
inactive: dose: 100.0 mg/kg/injection, schedule: Q01DX001 (ip), vehicle: saline with Tween-80 104 % of control | [6] 100 % of control | [7] 91 % of control

CCCCCCOc1cc2c(cc1C(C)c1ccc(OC)cc1)OCO2 (stereo not given)
inactive: [4] 103 % of control | [5] 109 % of control | dose: 200.0 mg/kg/injection, schedule: Q01DX005 (ip), vehicle: Klucel (hydroxypropylcellulose) (HPC) 109 % of control

COC1=C[C@@H](C)[C@@H]2C[C@H]3O[C@@H](OC4OC(CO)C(O)C(O)C4O)C[C@H]4C(C)=C(OC)C(=O)[C@H]([C@@]2(C)C1=O)[C@@]34C (stereo not given in full)
inactive: dose: 4.0 mg/kg/injection, schedule: Q01DX005 (ip), vehicle: Klucel (hydroxypropylcellulose) (HPC) 96 % of control | dose: 8.0 mg/kg/injection, schedule: Q01DX005 (ip), vehicle: Klucel (hydroxypropylcellulose) (HPC) 94 % of control | dose: 16.0 mg/kg/injection, schedule: Q01DX005 (ip), vehicle: Klucel (hydroxypropylcellulose) (HPC) 103 % of control

[Se]=[Nb]=[Se]
inactive: dose: 60.0 mg/kg/injection, schedule: Q01DX005 (ip), vehicle: acid diluted with saline 89 % of control | dose: 120.0 mg/kg/injection, schedule: Q01DX005 (ip), vehicle: acid diluted with saline 93 % of control | dose: 240.0 mg/kg/injection, schedule: Q01DX005 (ip), vehicle: acid diluted with saline 90 % of control

CCOC(=O)N1CCN(CCCCCOc2ccc(CC(C)(C)C)cc2Cl)CC1
inactive: dose: 25.0 mg/kg/injection, schedule: Q01DX009 (ip), vehicle: saline with Tween-80 110 % of control | dose: 25.0 mg/kg/injection, schedule: Q01DX009 (ip), vehicle: saline 93 % of control | dose: 50.0 mg/kg/injection, schedule: Q01DX009 (ip), vehicle: saline with Tween-80 106 % of control | dose: 50.0 mg/kg/injection, schedule: Q01DX009 (ip), vehicle: saline 100 % of control | dose: 100.0 mg/kg/injection, schedule: Q01DX009 (ip), vehicle: saline with Tween-80 111 % of control | dose: 100.0 mg/kg/injection, schedule: Q01DX009 (ip), vehicle: saline 113 % of control | dose: 200.0 mg/kg/injection, schedule: Q01DX009 (ip), vehicle: saline with Tween-80 117 % of control | dose: 200.0 mg/kg/injection, schedule: Q01DX009 (ip), vehicle: saline 92 % of control

CCCCCCN(CCCCCC)c1nsc(Cl)n1
inactive: dose: 40.0 mg/kg/injection, schedule: Q01DX009 (ip), vehicle: saline with Tween-80 105 % of control | dose: 80.0 mg/kg/injection, schedule: Q01DX009 (ip), vehicle: saline with Tween-80 108 % of control | dose: 160.0 mg/kg/injection, schedule: Q01DX009 (ip), vehicle: saline with Tween-80 111 % of control

Cc1ccn(C(=O)C2=Cc3ccccc3OC2)c(=N)c1
inactive: dose: 100.0 mg/kg/injection, schedule: Q04DX003 (ip), vehicle: Klucel (hydroxypropylcellulose) (HPC) 106 % of control | dose: 200.0 mg/kg/injection, schedule: Q04DX003 (ip), vehicle: Klucel (hydroxypropylcellulose) (HPC) 103 % of control | dose: 400.0 mg/kg/injection, schedule: Q04DX003 (ip), vehicle: Klucel (hydroxypropylcellulose) (HPC) 100 % of control

C=C1CCN(c2ccccc2)C1=O
inactive: dose: 4.0 mg/kg/injection, schedule: Q01DX009 (ip), vehicle: saline + alcohol 107 % of control | dose: 8.0 mg/kg/injection, schedule: Q01DX009 (ip), vehicle: saline + alcohol 92 % of control | dose: 16.0 mg/kg/injection, schedule: Q01DX009 (ip), vehicle: saline + alcohol 105 % of control | dose: 32.0 mg/kg/injection, schedule: Q01DX009 (ip), vehicle: saline + alcohol 101 % of control | dose: 64.0 mg/kg/injection, schedule: Q01DX009 (ip), vehicle: saline + alcohol 107 % of control

N=C(N)SC1C=C(O)C=C(c2c(O)c(=O)oc3ccccc23)C1=O (stereo not given)
inactive: [1] 104 % of control | [2] 103 % of control | [3] 88 % of control
